From patent publication US20040147500A1, “Injectable galenic formulation for use in a diagnosis or a photodynamic therapy and method for preparing same” (priority 2001, published 2004)

Columns and labels:
[1] = test system: rats (Sprague Dawley), rabbits (New-Zealand albino), monkeys (Cynomolgus); format: in vivo; settings: intravenous, injection speeds up to 4 ml/min
Description: Male rats (Sprague Dawley): 6 to 12 animals for each dose (2×5, 2×10 and 2×20 mg/kg. The product was injected intravenously into the caudal vein.
Rabbits (New-Zealand albino rabbits): 5 animals received the dose of 5 mg/kg. The product was injected three times intravenously, once intra-arterially and once perivenously.
Monkeys (Cynomolgus, of a weight varying from 2.5 to 3.2 kg): 6 to 10 animals of each sex for each dose (1, 2, 5 and 6 mg/kg). The product was injected intravenously into the saphenous vein or into the cephalic vein, once each day during 14 days.
Monkeys (Cyonomolgus of a weight varying from 2.25 to 4.7 kg): 3 to 6 animals for each dose (2 and 5 mg/kg). The product was injected intravenously into the saphenous vein or into the cephalic vein.
The assessment of the animals was made on the basis of clinical signs, biological analyses carried out on the blood and on the urine, cardiovascular examinations and of histopathological examinations.

[2] = test system: mice (OF), rats (Sprague Dawley), monkeys (Cynomolgus); format: in vivo; settings: intravenous, provided the injections were made slowly
Description: 1—Mice (OF, of a weight varying from 25 to 35 grams): 10 animals of each sex for each dose (2×25, 2×50, 2×75 and 1×100 mg/kg).The product was injected into the caudal vein.
2—Rats (Sprague Dawley, of a weight varying from 150 to 230 grams): 4 to 10 animals of each sex for each dose (from 4 to 200 mg/kg). The product was injected into the caudal vein.
3—Monkeys (Cynomolgus of a weight varying from 1.8 kg to 3.5 kg): 1 animal of each sex for each dose (8, 16 and 24 mg/kg). The product was injected into the saphenous vein or into the cephalic vein once a day during 7 days.
The assessment of the animals was made on the basis of clinical signs, biological analyses carried out on the blood and the urine and of histopathological examinations.

[3] = in vivo; cited from earlier work

Pd-bacteriopheophorbide a [Pd-Bpheide a]
tolerance in toxicity studies [1]: well tolerated | tolerance in toxicity studies [2]: well tolerated | cutaneous and ocular photosensitisation [3]: no or little cutaneous photosensitisation
